From patent US7888389B2 (The Regents of the University of Michigan, priority 2002, dated 2011)
Values joined by “and” are separate entries in the source; they are usually repeats but may differ in a detail not shown here. Equal entries are not always repeated. Where two headings read alike, the source gives them in different places.

Experiments:
[1] = Stability in open Petri dishes at room temperature (activity over time); conditions: for percentage activity: open Petri dishes at room temperature
Source text: FIG. 4. […] Stability of each compound was studied under conditions that exacerbate instability, i.e. the drugs were in open Petri dishes at room temperature. The percentage activity is plotted as a function of time in days.
This study was done under conditions that exacerbate instability, ie. the drugs were in open Petri dishes at room temperature.

[2] = Stability in moist heated air; format: physicochemical
[3] = tested on: breast cancer cells; assay: Human breast cancer xenograft growth in athymic nude mice; format: in vivo; conditions: TM 1 mg/day; TP-TM 1 mg/day and 1.5 mg/day; p<0.01 vs control
Method: FIG. 5. […] 10^6 breast cancer cells were injected in the mammary fat pad of 4 groups of athymic, nude mice (5 mice per group). Control mice received no treatment.
In this study, 10^6 breast cancer cells were injected in the mammary fat pad of 4 groups of athymic, nude mice (5 mice per group). Control mice received no treatment.

[4] = tested on: mouse sarcoma, MCA205, and mouse melanoma, B16B16; assay: Mouse tumor model, injected tumor cells; format: in vivo, C57B1/6J mice
Method: Under these guidelines, anti-angiogenesis therapeutic studies were conducted using TM in a mouse tumor model. This study involved subcutaneous or intramuscular injection of tumor cells into young adult C57B1/6J mice. Two tumors were used, a mouse sarcoma, MCA205, and a mouse melanoma, B16B16. The MCA 205 tumor cell suspension was injected subcutaneously into C57B16 mice. After the tumors were palpable, copper deficiency was induced by use of TM in half the animals, using Cp levels to monitor copper status. The other half were sham treated. Tumor growth was compared between the untreated control group and mice treated with sufficient TM to reduce Cp to about 10% of normal controls.

[5] = tested on: SUM149 breast cancer cells; assay: SUM149 orthotopic tumors in nude mice; format: in vivo
Source text: In this study, the ability of tetrathiomolybdate (TM) to abrogate or retard the growth of tumors in the mammary pads of nude mice after orthotropic injection of human breast cancer cells was studied. The highly angiogenic inflammatory breast cancer cell line called SUM149 was selected for this study. Given its high propensity to form palpable tumors within 2 weeks of injection into the mammary of 80-100% of the nude mice injected, this cell line posed a stringent test of the ability of TM to impair tumor progression.
Three groups of 5 nude mice each were set up in separate cages. Groups 2 and 3 received TM in the drinking water to average an intake of 1.2 mg/day/mouse, starting at day-7. Groups 1, 2, and 3 were injected on day 0 with 10^6 SUM149 breast cancer cells in the second thoracic mammary fat pad. On day 34, as no palpable tumors were noticeable in any of the mice in the treatment groups, TM was skipped on groups 2 and 3, and then TM was restarted on group 2at a dose of 0.6 mg/day/mouse, while TM was resumed at full dose (1.2 mg/mouse/day) in group 3.
The developing tumors were measured approximately twice weekly, and the average of the product of the bi-dimensional perpendicular diameters for each group versus time was determined. The tumors in the control group grew relatively rapidly and all animals developed tumors. […] This dose decreases copper to approximately 10-20% of baseline levels. It is this degree of copper deficiency, well tolerated in both mice and humans, which appears to be required to inhibit tumor angiogenesis.

[6] = Storage stability of TM (bulk and capsules); format: physicochemical; conditions: room temperature
Source text: TM and salts of TM are available; one of the preferred salts of TM is the ammonium salt. […] TM purchased from Aldrich Chemical Company (available in one kilogram bulk lots) is certified pure for human use. The bulk drug should be stored in the absence of oxygen, or the oxygen will gradually exchange with the sulfur, rendering the drug ineffective over time. The bulk drug is therefore stored under argon.
TM was purchased in bulk lots suitable for human administration (Aldrich Chemical Company, Milwaukee, Wis.). […] At the time a prescription was written, the appropriate dose of TM was placed in gelatin capsules. […] Thus, TM was dispensed to each patient in eight-week installments throughout the trial.

[7] = tested on: MML cells (prostate cancer) and breast cancer cells
[8] = tested on: metastatic solid tumors
[9] = cited from earlier work
[10] = IV 99Mo labeled TM, sheep; cited from earlier work
[11] = cited from earlier work; remark: listed apart in the source
[12] = cited from earlier work; remark: listed apart in the source
[13] = tested on: mammary tumors; assay: Mammary tumor development in HER2-neu transgenic mice
[14] = ½ dose of TM (0.6 mg/day/mouse)

With tetrathiomolybdate [TM] the half life [1] was “about 40 days”, the percentage activity ([1]; Day 0) was 100 and the percentage activity ([1]; Day 45) was 44. For the same substance, the percentage activity ([1]; Day 148) was 9, the percentage activity ([1]; Day 211) was 0 and the “increase of loss of activity in moist heated air over ambient conditions” value [2] was “about 10 fold”. The “tumor growth curves versus control animals” value [3] was “effectively inhibiting tumor growth”, the “tumor growth rate, final tumor size and weight” value ([4]; TM sufficient to reduce Cp to about 10% of normal, 16 days observation) was “significant effect on reducing the growth rate of tumors, and on reducing final tumor size and weight” and the “tumor weight normalized to total weight of the animal versus control” value ([4]; mouse, in vivo) was “weighed significantly less than the tumors in control mice”. The “palpable tumors in treatment groups” value ([5]; TM 1.2 mg/day/mouse in drinking water from day -7) was “no tumors were palpable until TM was skipped on day 34”, the copper level ([5]; full dose TM 1.2 mg/day/mouse) was 10-20 % of baseline levels and the “tumor growth after day 34” value ([5]; full dose TM 1.2 mg/day/mouse) was “only very small tumors have grown”. The “decrease of copper levels” value [5, 14] was 50%, the “tumor growth after day 34” value [5, 14] was “the tumors grew more rapidly” and the stability in capsules [6] was “stable in capsules for several months at room temperature”. For the same substance, the “effective decoppering serum concentration relative to threshold lethal level for cells (fold lower)” value [7] was 100-500 fold, the “speed of reducing Cp level to <20%” value ([8]; 20 mg tid with meals plus single 60 mg between meals vs 20 mg tid with and 20 mg tid between meals) was “more rapidly” and the “mean time to 50% reduction of Cp” value ([8]; 90, 105, 120 mg/day) was 30 days. For the same substance, the “median time to Cp 50% of baseline” value ([8]; 90, 105, 120 mg/day) was 28 days, the “level III dose outcome” value ([8]; TM 120 mg/day) was “effective in reaching the target Cp, without added toxicity” and the “time for further reduction to Cp levels of 5-10 mg/dl” value ([8]; after reaching 50% of baseline) was 20 to 30 days. The “lung lesions in two patients with stable disease” value ([8]; at target Cp for 120 and 49 days) was “complete disappearance of some lung lesions and decrease in size of other lung lesions”, the “additional toxicities with long-term maintenance” value ([8]; human, in vivo) was “No additional toxicities of any type were observed” and the burping ([8]; human, in vivo) was “Several patients experienced transient, occasional sulphur-smelling burping”. The “mild (greater than 80% of baseline Hct) reversible anemia” value ([8]; human, in vivo) was 4 patients, the “only drug-related toxicity observed” value ([8]; human, in vivo) was “mild anemia in one patient” and the “time for hematocrit to recover after stopping the drug” value ([8]; human, in vivo) was 5 to 7 days. The “time to rapid rise in Cp after TM discontinued” value ([8]; human, in vivo) was at most 48 h, the “toxicities at Cp levels at or above 20% of baseline” value ([8]; human, in vivo) was “no cardiac, pulmonary, GI, renal, hepatic, hematologic, infectious, skin, mucosal, or neurologic toxicities observed” and the “treated patients maintained at target Cp for more than 90 days” value ([8]; human, in vivo) was 39%. The “patients with serum Cp lowered to 50% of baseline” value ([8]; initial TM 90 to 120 mg per day) was 17 out of 18 patients, the “duration of stable disease on TM treatment” value ([8]; one patient, previously untreated metastatic breast cancer) was “over 6 months” and the “decrease in blood flow to tumor mass (3D-ultrasound)” value ([8]; rib metastasis of renal cell carcinoma, approximately 8 weeks after target copper deficiency) was 4.4 fold. For the same substance, the anemia ([9]; 18 mg of TM) was “the anemia was severe”, the effects in rats ([9]; approximately 6 mg of TM per kilogram of diet) was “substantial effects on copper” and the anemia ([9]; approximately 12 mg of TM) was “Mild anemia was present”. For the same substance, the skeletal lesions ([9]; approximately 12 mg of TM) was “one of six animals”, the “prevention of toxic effects by copper” value ([9]; up to 36 mg of TM per kilogram of diet) was “could be prevented by oral supplementation with copper” and the excreted in feces [10] was 5%. The excreted in urine [10] was “over 90%”, the “t1/2 of slow plasma disappearance” value [10] was “about 40 h” and the “potency retained in gelatin capsules” value ([11]; eight weeks) was “at least 90%”. The “stability of bulk drug” value ([11]; under argon) was “stable for several years under argon”, the “tolerance of TM injections” value ([12]; IV 50 or 100 mg 2x weekly, copper loaded sheep) was “tolerated up to 22 injections of TM without clinical problems” and the “adverse side effects in commercial sheep flocks” value ([12]; over 400 animals treated) was “no adverse side effects”. For the same substance, the “TM-treated mice developing clinically overt tumors” value ([13]; 0.5-1.0 mg TM by gavage daily from 100 days of age, median follow-up 260 days) was “none”, the “ceruloplasmin (Cp) in treatment group” value ([13]; 0.5-1.0 mg TM daily) was “below 40 % of baseline” and the “outcome at higher doses” value ([13]; 1.25-1.5 mg TM) was “died after 1-3 weeks of therapy”. For the same substance, the “shrinkage of well established tumors (>1.5 cm)” value ([13]; 3 control animals treated, 2/3 cases) was 25% and 50%, the “vascularization of micro-tumors in mammary glands” value ([13]; TM-treated mice, microscopic analyses) was “none of the micro-tumors of the treated mice were vascularized” and the “maximum tolerated dose (MTD), prolonged treatment” value ([13]; adult mice, average weight 32 grams) was 1.0 mg/day. For the same substance, the anemia ([13]; copper (Cp) decreased to below 40% of baseline) was “no anemia observed”, the clinically overt toxicity ([13]; copper levels decreased to 10% of baseline) was “no clinically overt toxicity” and the “time to clinically overt mammary tumors after release from treatment” value ([13]; cross-over group previously disease-free) was at most 18 days.
